Measurements as given in patent publication US20040220085A1, “Compositions for nucleic acid delivery” (priority 2003, published 2004).

What was measured:
Format in all cases: cell-based, human
JJ5 breast cancer cells [1] = experiment: Growth inhibition assay against JJ5 breast cancer cells; details: 4 days culture
Method: JJ5 breast cancer cells (prepared from BCBM JJ5) expressing approximately 10^6 epidermal growth factor receptors/cell were incubated with EGF-^111In-labeled transferrin composition, unlabeled hEGF or ^111In-oxine, centrifuged to remove free ligand, then assayed and seeded (10^6 cells/dish) into 35 mm culture dishes. Growth medium was added and the cells were cultured at 37° C./5% CO^2 for 4 days. The cells were then recovered by trypsinization and counted in a hemocytometer. Control dishes contained cells cultured in growth medium containing ^111In-DTPA or growth medium alone.

JJ5 breast cancer cells [2] = experiment: Cytotoxicity (colony-forming) assay against JJ5 breast cancer cells; details: 14 days
Method: JJ5 breast cancer cells were incubated with increasing amounts EGF-^111In-labeled transferrin composition or ^111In-oxine, centrifuged to remove free ligand, assayed and then seeded into 50 mm culture dishes. The number of cells seeded was varied from 3×10^4 to 3×10^6cells to obtain approximately 400 viable colonies/dish taking into account the plating efficiency and the expected level of cytotoxicity. Control dishes contained JJ5 breast cancer cells which were incubated with normal saline. Growth medium was added and the cells were cultured at 37° C./5% CO^2 for 14 days. The growth medium was removed and the colonies were stained with methylene blue (1% in a 1:1 mixture of ethanol and water) then washed twice. The number of colonies per dish was counted using a manual colony counter (Manostat Corp). The plating efficiency was calculated by dividing the number of colonies observed by the number of cells seeded in each dish. The surviving fraction at increasing amounts of EGF-^111In-labeled transferrin composition or ^111In-oxine was calculated by dividing the plating efficiency for dishes containing treated cells with that observed for control dishes with normal saline.

[3] = test system: JJ5 Breast Cancer cells (EGFR); experiment: Binding of EGF-111In-labeled transferrin composition to JJ5 breast cancer cells
Method: For the normal breast cell line HBL-100, 8000 EGFR/cell has been reported. The expression of EGFR in breast cancer cell lines has a reported range of 800 EGFR/cell for MCF-7 cells to 10^6 EGFR/cell for MDA-MB-468 cells. […] Utilizing the Auger electron emitter ^111In was used in the initial experiments to illustrate the utility of the invention using EGF-^111In-labeled transferrin compositions. The EGF-^111In-labeled transferrin (0.25-80 ng) was incubated with 1.5×10^6 cells/dish JJ5 Breast Cancer (prepared from BCBM JJ5) cells in 1 mL of 0.1% human serum albumin in 35 mm multiwell culture dishes at 37° C. for 30 minutes. The cells were transferred to a centrifuge tube and centrifuged. The cell pellet was separated from the supernatant and counted in a g-scintillation counter to determine bound (B) and free (F) radioactivity. Non-specific binding was determined by conducting the assay in 100 nM hEGF. The kinetics of binding was determined by incubating 1 ng of EGF-^111In-labeled transferrin composition with 3×10^6 JJ5 Breast Cancer cells at 37° C. and determining the proportion of radioactivity bound to the cells at various times up to 24 hours. Internalized fraction was measured by determining the proportion of radioactivity which could not be displaced from the cell surface by 100 nM hEGF. Cell-associated binding (surface-binding and intracellular accumulation) was expressed as a percentage of medium radioactivity bound per mg of cell study protein.

Compound	growth inhibition of the JJ5 cells (JJ5 breast cancer cells [1]; 3.5 pCi/cell) [%]	cell killing (JJ5 breast cancer cells [2]; <6 pCi/cell)	growth inhibition of the JJ5 cells compared to the medium control (JJ5 breast cancer cells [1]; 3.4 pCi/cell) [%]	reduction in cell survival for JJ5 cells (JJ5 breast cancer cells [2]; 8 pCi/cell) [%]	internalization by cancer cells ([3]; JJ5 cells)	number of binding sites ([3]; JJ5 cells)	kinetics of binding to the breast cancer cells ([3]; JJ5 cells, 37° C.)	time retained by the breast cancer cells ([3]; JJ5 cells, 37° C.)	affinity constant for binding to JJ5 cells ([3]; JJ5 cells, 37° C., 30 minutes) [L/mol]	111In radioactivity lost from the cells in vitro ([3]; over a 24 hour period at 37° C.) [%]
[In+3].[O-]c1cccc2cccnc12.[O-]c1cccc2cccnc12.[O-]c1cccc2cccnc12 [^111In-oxine, reference compound]	91	greater than 99%								
EGF-^111In-labeled transferrin composition: human EGF linked to transferrin radiolabeled with the Auger electron emitter 111In at the iron-binding sites			83	99	rapidly internalized	2.7×10^6	rapidly bound	at least 24 hours	8e+08	< 8
